Peptide text beside a SMILES is read from it. * marks the point of attachment. Decanoyl = CCCCCCCCCC(=O)*; CH2Cl = ClC*

One data set concerns β-DG. The data set can be described thus: Metalloprotease-dependent shedding and cleavage of dystroglycan in cultured cells (immunoblot). The following applies: incubation of the cells with inhibitor. It is filed as cell-based. As to the method:
FIG. 6A-B depicts a modification of dystroglycan by metalloprotease activity. (A) Structure of α-DG and β-DG. α-DG associates non-covalently with β-DG, which spans the plasma membrane. O-linked glycosylation is shown as a chain of circles of varying length, whereas N-linked glycosylation is shown as branches. (B) Immunoblot analysis of α-DG and β-DG levels in cell lines cultured in the presence or absence of the MP inhibitor BB-2516. Cells were cultured in serum-free medium for two days with or without BB-2516 and then total cellular proteins were extracted and subjected to immunoblot analysis of α-DG and β-DG.
To confirm that metalloprotease activity is indeed blocked by the GM6001, the cleavage of known molecules is monitored. Using identically treated cell populations, proteins are extracted and analyzed by immunoblot. These controls include detecting the cleavage of the β-DG subunit, which is evidenced by a shift in the molecular mass of this protein from 43 kDa to 31 kDa in MDA-MB-231 cells using an antibody binding the β-DG cytoplasmic domain (see FIG. 6).
For example, metalloprotease cleavage events are responsible for the shedding of β-DG from the cell surface, and for direct cleavage of the extracellular domain of β-DG, which is detected by the reduction in the molecular mass of β-DG from 43 kD to 31 kD. Both the shedding of β-DG, and the cleavage of β-DG are blocked by the incubation of the cells with the broad-spectrum MMP inhibitors GM6001 or BB2516. Detection of the cleaved form of p-DG can be completely eliminated after just 24 hours exposure to the MMP inhibitor.
(In general: In western blotting, separated proteins are transferred to a membrane and probed.)

The test system of a further data set is α-DG. The data set can be described thus: Immunoprecipitation of the DG complex after furin inhibitor treatment. The format is cell-based. The following applies: EpH4, MDA-MB-231 and MDA-MB-468 cells.
Data set [1] concerns BT474 and MDA-MB-231 cells. Conditions: 50 μM, extended periods of time; cited from earlier work.
A further data set concerns known metalloproteases. The following applies: 50 μM; cited from earlier work.

As to `CNC(=O)[C@@H](NC(=O)[C@H](CC(C)C)[C@H](O)C(=O)NO)C(C)(C)C` [BB2516], in the data set with β-DG, the “cleavage of β-DG (43 kD to 31 kD)” value is reported as “blocked” and the “shedding of β-DG from the cell surface” value is “blocked”.

On to `CCCCCCCCCC(=O)N[C@@H](CCCN=C(N)N)C(=O)N[C@H](C(=O)N[C@@H](CCCCN)C(=O)N[C@@H](CCCN=C(N)N)C(=O)CCl)C(C)C` [CMK] (Decanoyl-RVKR-CH2Cl), for which, in the data set on α-DG, the α-DG band position result was “shifted upward in all cells”.

Turning to `CNC(=O)[C@H](Cc1c[nH]c2ccccc12)NC(=O)[C@@H](CC(=O)NO)CC(C)C` [GM6001], in data set [1], the “cell viability on extended exposure” value was “without loss of cell viability”. For the same compound, in the data set with β-DG, the “cleavage of β-DG (43 kD to 31 kD)” value is listed as “blocked” and the “shedding of β-DG from the cell surface” value was “blocked”. In addition, the “block of activity of known metalloproteases” value with known metalloproteases was “more than sufficient to block the activity of known metalloproteases”.
